Experimental data as given in patent US20110294810A1, “SUBSTITUTED (PYRIDYL)-AZINYLAMINE DERIVATIVES AS PLANT PROTECTION AGENTS” (priority 2008, published 2011).

Test system: Pyricularia oryzae
Assay: not given
Assay type: in vivo
Details: 250 ppm of active ingredient, rice, protective, evaluated 5 days after inoculation

Row | SMILES | efficacy
1 | CC(N)c1cc(-c2ncnc(Nc3cccc(Cl)c3)n2)ccn1 (stereo not shown) [Compound C2, 4-[2-(1-aminoethyl)pyridin-4-yl]-N-(3-chlorophenyl)-1,3,5-triazin-2-amine] | ≥ 80%

Test system: Peronospora parasitica
Assay: In vivo test on Peronospora parasitica (crucifer downy mildew), cabbage plants
Details: 500 ppm, cabbage plants sprayed 24 hours before contamination, grading 5 days after contamination
Method: Cabbage plants (Eminence variety) in starter cups, sown on a 50/50 peat soil-pozzolana substrate and grown at 18-20° C., are treated at the cotyledon stage by spraying with the aqueous suspension described above. Plants, used as controls, are treated with an aqueous solution not containing the active material. After 24 hours, the plants are contaminated by spraying them with an aqueous suspension of Peronospora parasitica spores (50 000 spores per ml). The spores are collected from infected plant. The contaminated cabbage plants are incubated for 5 days at 20° C., under a humid atmosphere. Grading is carried out 5 days after the contamination, in comparison with the control plants. Under these conditions, good (at least 70%) or total protection is observed at a dose of 500 ppm with the following compound: C2

Row | SMILES | protection (good, at least 70%, or total)
2 | CC(N)c1cc(-c2ncnc(Nc3cccc(Cl)c3)n2)ccn1 (stereo not shown) [Compound C2, 4-[2-(1-aminoethyl)pyridin-4-yl]-N-(3-chlorophenyl)-1,3,5-triazin-2-amine] | at least 70%

Test system: not listed separately
Assay: Measurement of logP values by HPLC on reversed phase columns (EEC directive 79/831 Annex V.A8)
Assay type: physicochemical
Details: HPLC on reversed phase columns; usually LC-MS at pH 2.7 with 0.1% formic acid in water and acetonitrile, linear gradient 10% to 95% acetonitrile

Row | SMILES | log p
3 | C#CCN(C)Cc1cc(-c2ccnc(Nc3cccc(Cl)c3)n2)ccn1 [Example A39] | 1.75
4 | CN(Cc1cc(-c2ccnc(Nc3cccc(Cl)c3)n2)ccn1)CC1CC1 [Example A40] | 1.84
5 | Clc1cccc(Nc2nccc(-c3ccnc(CN4CCCC4)c3)n2)c1 [Example A47] | 1.7
6 | CN(C)C1CCN(Cc2cc(-c3ccnc(Nc4cccc(Cl)c4)n3)ccn2)CC1 [Example A56] | 1.1
7 | CCOC(=O)C1CCCN(Cc2cc(-c3ccnc(Nc4cccc(Cl)c4)n3)ccn2)C1 (stereo not shown) [Example A57] | 1.98
8 | CSCc1cc(-c2ccnc(Nc3cccc(Cl)c3)n2)ccn1 [Example A67] | 3.17

Same assay, conditions: pH 2.7

Row | SMILES | log p
9 | CC(=O)NCc1cc(-c2ccnc(Nc3cccc(Cl)c3)n2)ccn1 [Compound A4] | 2.03
10 | CCCCC(=O)OCc1cc(-c2ccnc(Nc3cccc(Cl)c3)n2)ccn1 [Example A23] | 4.29
11 | CC(C)(C)C(=O)OCc1cc(-c2ccnc(Nc3cccc(Cl)c3)n2)ccn1 [Example A24] | 4.31
12 | CC(C)CC(=O)OCc1cc(-c2ccnc(N(C(=O)CC(C)C)c3cccc(Cl)c3)n2)ccn1 [Example A27] | 4.56
13 | CCC(=O)OCc1cc(-c2ccnc(N(C(=O)CC)c3cccc(Cl)c3)n2)ccn1 [Example A28] | 3.11
14 | CCCCC(=O)OCc1cc(-c2ccnc(N(C(=O)CCCC)c3cccc(Cl)c3)n2)ccn1 [Example A29] | 4.65
15 | CC(C)(C)C(=O)OCc1cc(-c2ccnc(N(C(=O)C(C)(C)C)c3cccc(Cl)c3)n2)ccn1 [Example A30] | 4.7
16 | CC(C)C(=O)OCc1cc(-c2ccnc(N(C(=O)C(C)C)c3cccc(Cl)c3)n2)ccn1 [Example A32] | 3.83
17 | COCCC(=O)OCc1cc(-c2ccnc(Nc3cccc(Cl)c3)n2)ccn1 [Example A34] | 3.13
18 | O=C(OCc1cc(-c2ccnc(N(C(=O)C3CCCC3)c3cccc(Cl)c3)n2)ccn1)C1CCCC1 [Example A35] | 4.86
19 | CC(C)N(C)Cc1cc(-c2ccnc(Nc3cccc(Cl)c3)n2)ccn1 [Example A42] | 1.79
20 | CN(Cc1cc(-c2ccnc(Nc3cccc(Cl)c3)n2)ccn1)C(C)(C)C [Example A43] | 1.84
21 | CC1CC(C)CN(Cc2cc(-c3ccnc(Nc4cccc(Cl)c4)n3)ccn2)C1 (stereo not shown) [Example A48] | 2.1
22 | Clc1cccc(Nc2nccc(-c3ccnc(CN4CCOCC4)c3)n2)c1 [Example A50] | 1.6
23 | CN1CCN(Cc2cc(-c3ccnc(Nc4cccc(Cl)c4)n3)ccn2)CC1 [Example A54] | 1.45
24 | Clc1cccc(Nc2nccc(-c3ccnc(CN4CCSCC4)c3)n2)c1 [Example A55] | 1.78
25 | COCC1CCCN1Cc1cc(-c2ccnc(Nc3cccc(Cl)c3)n2)ccn1 (stereo not shown) [Example A62] | 1.82
26 | CCSCCNCc1cc(-c2ccnc(Nc3cccc(Cl)c3)n2)ccn1 [Example A66] | 2.1
27 | Clc1cccc(Nc2nccc(-c3ccnc(CI)c3)n2)c1 [Example A68] | 3.73
28 | CCCCCSCc1cc(-c2ccnc(Nc3cccc(Cl)c3)n2)ccn1 [Example A74] | 5.08
29 | C=CCSCc1cc(-c2ccnc(Nc3cccc(Cl)c3)n2)ccn1 [Example A75] | 3.8
30 | CC(C)(C)CCSCc1cc(-c2ccnc(Nc3cccc(Cl)c3)n2)ccn1 [Example A78] | 5.34
31 | FC(F)(F)CSCc1cc(-c2ccnc(Nc3cccc(Cl)c3)n2)ccn1 [Example A79] | 4.01
32 | CN(C)CCSCc1cc(-c2ccnc(Nc3cccc(Cl)c3)n2)ccn1 [Example A82] | 1.75
33 | CCOC(=O)CCSCc1cc(-c2ccnc(Nc3cccc(Cl)c3)n2)ccn1 [Example A85] | 3.67
34 | CC(C)CCSCc1cc(-c2ccnc(Nc3cccc(Cl)c3)n2)ccn1 [Example A86] | 4.97
35 | CCOCCNCc1cc(-c2ccnc(Nc3cccc(Cl)c3)n2)ccn1 [Example A95] | 1.84

Same assay, conditions: reversed phase HPLC column; HPLC on reversed phase columns; usually LC-MS at pH 2.7 with 0.1% formic acid in water and acetonitrile, linear gradient 10% to 95% acetonitrile; read-out: log p

Row | SMILES | chromatographic logP
36 | OCc1cc(-c2ccnc(Nc3cccc(Cl)c3)n2)ccn1 [Compound A14, (4-{2-[(3-chlorophenyl)amino]pyrimidin-4-yl}pyridin-2-yl)methanol] | 1.91

Same assay, conditions: reversed phase HPLC column; LC-MS at pH 7.8, 0.001 molar ammonium hydrogen carbonate in water, gradient 10% to 95% acetonitrile; read-out: log p [c]

Row | SMILES | chromatographic logP
37 | CC(N)c1cc(-c2ncnc(Nc3cccc(Cl)c3)n2)ccn1 (stereo not shown) [Compound C2, 4-[2-(1-aminoethyl)pyridin-4-yl]-N-(3-chlorophenyl)-1,3,5-triazin-2-amine] | 1.81

Test system: Phakopsora pachyrhizi
Assay: Phakopsora test (soybeans) / protective
Assay type: in vivo
Details: 500 ppm of active ingredient, evaluated 11 days after inoculation
Method: Solvent: 28.5 parts by weight of acetone Emulsifier: 1.5 parts by weight of polyoxyethylene alkyl phenyl ether
To produce a suitable preparation of active compound, 1 part by weight of active compound is mixed with the stated amounts of solvent and emulsifier, and the concentrate is diluted with water to the desired concentration.
To test for protective activity, young plants are sprayed with the preparation of active compound at the stated rate of application. One day after spraying, the plants are inoculated with an aqueous spore suspension of the causal agent of soybean rust (Phakopsora pachyrhizi). The plants are then placed in a greenhouse at approximately 20° C. and a relative atmospheric humidity of approximately 80%.
The test is evaluated 11 days after the inoculation. 0% means an efficacy which corresponds to that of the control, while an efficacy of 100% means that no disease is observed.

Row | SMILES | efficacy
38 | OCc1cc(-c2ccnc(Nc3cccc(Cl)c3)n2)ccn1 [Compound A14, (4-{2-[(3-chlorophenyl)amino]pyrimidin-4-yl}pyridin-2-yl)methanol] | ≥ 80%

Test system: Puccinia recondita
Assay: In vivo test on Puccinia recondita (brown rust), wheat plants
Details: 500 ppm, wheat plants sprayed 24 hours before contamination, grading 10 days after contamination
Method: Wheat plants (Scipion variety) sown on 50/50 peat soil-pozzolana substrate in starter cups and grown at 12° C., are treated at the 1-leaf stage (10 cm tall) by spraying with the aqueous suspension described above. Plants, used as controls, are treated with an aqueous solution not containing the active material. After 24 hours, the plants are contaminated by spraying the leaves with an aqueous suspension of Puccinia recondita spores (100,000 spores per ml). […] The contaminated wheat plants are incubated for 24 hours at 20° C. and at 100% relative humidity, and then for 10 days at 20° C. and at 70% relative humidity. Grading is carried out 10 days after the contamination, in comparison with the control plants. Under these conditions, good (at least 70%) or total protection is observed at a dose of 500 ppm with the following compound: A4

Row | SMILES | protection (good, at least 70%, or total)
39 | CC(=O)NCc1cc(-c2ccnc(Nc3cccc(Cl)c3)n2)ccn1 [Compound A4] | at least 70%

Test system: Cochliobolus miyabeanus
Assay: Cochliobolus test (rice) / protective
Assay type: in vivo
Details: 250 ppm of active ingredient, evaluated 4 days after inoculation

Row | SMILES | efficacy
40 | CC(N)c1cc(-c2ncnc(Nc3cccc(Cl)c3)n2)ccn1 (stereo not shown) [Compound C2, 4-[2-(1-aminoethyl)pyridin-4-yl]-N-(3-chlorophenyl)-1,3,5-triazin-2-amine] | ≥ 80%
